Data on 14 molecules can be found in paper PMC6886403, “Structure-Based and Molecular Modeling Studies for the Discovery of Cyclic Imides as Reversible Cruzain Inhibitors With Potent Anti-Trypanosoma cruzi Activity” (Frontiers in Chemistry, 2019).

The nature of data set [1]: Cytotoxicity in HFF-1 cells (MTS tetrazolium assay). The class given is cell-based. To be noted: human, HFF-1 fibroblasts, mean ± SD of two independent assays. The protocol: (§1) The cytotoxicities of the compounds against HFF-1 fibroblasts and HepG2 hepatocytes were evaluated using the MTS tetrazolium assay (Promega, Madison, WI) (Barltrop et al., [1991]). HFF-1 fibroblasts were seeded at 2 × 10^3/well in 96-well culture plates in RPMI 1640 without phenol red supplemented with 10% FCS and incubated overnight (37°C, 5% CO2). HepG2 hepatocytes were seeded at 6 × 10^3/well in 96-well culture plates in DMEM (Cultilab, Campinas SP) supplemented with 10% FCS and incubated overnight (37°C, 5% CO2). The compounds were added in 3-fold serial dilutions, and the plates were incubated at 37°C with 5% CO2. Each compound concentration was evaluated in triplicate. All plates included doxorubicin (Sigma-Aldrich, St. Louis, MO) as a positive control and untreated wells (100% growth) as a negative control. After 72 h, 20 μL of MTS was added, and the plates were incubated for 4 h. The absorbance was measured at 490 nm in an automated microplate reader, and the data were transferred to SigmaPlot 10.0 (Systat Software Inc., Erkrath, Germany) for IC50 value calculation. The percent of nonviable cells was determined and compared to the negative control wells (100% growth).

For data set [2], the system named is T. cruzi intracellular amastigotes. As to the kind of experiment: T. cruzi intracellular amastigote assay (Tulahuen lacZ strain, CPRG readout). The class given is cell-based, Trypanosoma cruzi. Particulars: for IC50: Trypanosoma cruzi, read-out: IC50 T. cruzi. The protocol:
In vitro assays against T. cruzi were performed as described previously (Ferreira et al., [2014]). The T. cruzi Tulahuen strain, which expresses the E. coli β-galactosidase gene lacZ (Buckner et al., [1996]), was provided by Frederick S. Buckner (University of Washington, Seattle, WA). Stock solutions of the synthesized compounds were prepared in 100% DMSO. Epimastigotes were grown in liver infusion tryptone (LIT) supplemented with 10% fetal calf serum (FCS), penicillin and streptomycin (28°C). Metacyclogenesis from epimastigotes to trypomastigotes was induced by incubation of the epimastigotes in Grace's insect medium (Sigma-Aldrich, St. Louis, MO) supplemented with 10% FCS (28°C). HFF-1 human fibroblasts were seeded at 2 × 10^3/well (80 μL) in 96-well tissue culture plates in RPMI 1640 without phenol red supplemented with 10% FCS and incubated overnight (37°C, 5% CO2). Next, trypomastigotes were added at 1.0 × 10^4/well (20 μL), and the plates were incubated (37°C, 5% CO2). After 24 h, 3-fold serial dilutions (50 μL) of the synthesized compounds were added at concentrations ranging from 0.1 to 100 μM, and the plates were incubated (37°C, 5% CO2). Each compound concentration was evaluated in triplicate. All plates included BZ (Sigma-Aldrich) as a positive control and untreated wells (100% growth) as a negative control. After 120 h, 50 μL of chlorophenol red β-D-galactopyranoside (CPRG, Sigma-Aldrich) and IGEPAL CA-630 (Sigma-Aldrich) (0.1%) was added to each well. The absorbance was measured at 570 nm in an automated microplate reader, and the data were transferred to SigmaPlot 10.0 (Systat Software Inc.) for IC50 value calculation.

The target of the next data set is T1, cruzain (Trypanosoma cruzi, UniProt P25779).
T1 construct: inferred from Ni-NTA purification of the pro-enzyme; made in house; host or cells: Escherichia coli (M15)
As to the kind of experiment: Cruzain inhibition assay (cleavage of fluorogenic substrate Z-Phe-Arg-AMC). To be noted: for inhibition at 100 µM: at 100 μM inhibitor, mean of three measurements, read-out: Percent inhibition against cruzain; for IC50: mean ± SD of three individual experiments, at least six inhibitor concentrations in triplicate, 1.5 nM cruzain, 5.0 μM Z-Phe-Arg-AMC, pH 5.5. The data set is classed as biochemical. How it is done:
The catalytic activity of cruzain was monitored by cleavage of the fluorogenic substrate Z-Phe-Arg-aminomethyl coumarin (Z-Phe-Arg-AMC) as previously described (Ferreira et al., [2014]). The enzyme kinetics assays were performed in 0.1 M sodium acetate buffer (pH 5.5) with 5 mM dithiothreitol (DTT) and 0.01% Triton X-100. […] The enzyme reaction was monitored for 5 min at 30°C in 96-well black flat bottom plates, and the activity was calculated based on the initial rates compared with a control (DMSO). Wavelengths of 355 nm for excitation and 460 nm for emission were used. IC50 values were independently determined by determining rate measurements for at least six inhibitor concentrations, each evaluated in triplicate. To determine the mechanism of inhibition, eight substrate concentrations and four inhibitor concentrations were used, each in triplicate. The mechanism of inhibition was determined by Lineweaver-Burk plots. SigmaPlot 10.0 (Systat Software Inc., Erkrath, Germany) was used to determine the IC50 values.

Data set [3] in a line: Cytotoxicity in HepG2 cells (MTS tetrazolium assay). The class given is cell-based. To be noted: human, HepG2 hepatocytes, mean ± SD of two independent assays. How it is done: as §1
On the set-up of data set [4]: method as in Pérez-Molina and Molina, 2018. Particulars: patients under treatment; ref Pérez-Molina and Molina, 2018; cited from earlier work.
[5] abbreviates: intracellular amastigotes, Tulahuen strain in HFF-1 fibroblasts, 120 h, mean ± SD of two experiments.

Where two headings read alike, the source gives them in different places.

T1 sequence (P25779 123-337 limits assumed): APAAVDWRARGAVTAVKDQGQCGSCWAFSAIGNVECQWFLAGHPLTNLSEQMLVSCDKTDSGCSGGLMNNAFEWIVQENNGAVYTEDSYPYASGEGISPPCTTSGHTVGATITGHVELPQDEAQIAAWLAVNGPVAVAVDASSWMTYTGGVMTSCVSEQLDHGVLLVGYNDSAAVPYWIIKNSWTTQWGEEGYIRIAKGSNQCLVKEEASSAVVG

On to `CC(C)C[C@@H](C(=O)OCC(=O)Nc1ccc2ccccc2c1)N1C(=O)C2CC=CCC2C1=O` (stereo partly drawn) [3i, 2-(naphthalen-2-ylamino)-2-oxoethyl (2S)-2-(1,3-dioxo-1,3,3a,4,7,7a-hexahydro-2H-isoindol-2-yl)-4-methylpentanoate], for which the values for the CC50 at 72 h in data set [1] and in data set [3] were more than 100 µM and 45 ± 8 µM, respectively. In addition, the IC50 amounted to 32.8 ± 4.9 µM in data set [2] (setting [5]) and 2.1 ± 1.3 µM against cruzain. The mechanism of inhibition entry at cruzain (Lineweaver-Burk plots, eight substrate and four inhibitor concentrations) is recorded as “competitive”. The inhibition at 100 µM on cruzain is 79%.
For the molecule `COc1ccc(NC(=O)COC(=O)[C@H](Cc2ccccc2)N2C(=O)C=CC2=O)cc1Cl` [10j, 2-((3-chloro-4-methoxyphenyl)amino)-2-oxoethyl (S)-2-(2,5-dioxo-2,5-dihydro-1H-pyrrol-1-yl)-3-phenylpropanoate], the 50% cytotoxic concentration (CC50) at 72 h in data set [1] worked out at 15.7 ± 0.8 µM; in data set [3], 67 ± 8 µM. The IC50 in data set [2] (setting [5]) was found to be 1 ± 0.3 µM; at cruzain, 0.6 ± 0.1 µM. Moreover, the “trypanocidal activity relative to BZ” value in data set [2] (higher than that of BZ) is 3 fold. The inhibition at 100 µM at cruzain amounted to 97%. Also, the “increase in potency against cruzain relative to 3a” value on cruzain (more active than 3a) amounted to 4 fold.
Consider `COc1ccc(NC(=O)COC(=O)[C@H](CC(C)C)N2C(=O)C=C(C)C2=O)cc1Cl` [10e, 2-((3-chloro-4-methoxyphenyl)amino)-2-oxoethyl (S)-4-methyl-2-(3-methyl-2,5-dioxo-2,5-dihydro-1H-pyrrol-1-yl)pentanoate], for which the CC50 at 72 h in data set [1] was determined as 4.8 ± 0.5 µM; in data set [3], 5 ± 1 µM. Moreover, the IC50 was 1.2 ± 0.3 µM in data set [2] (setting [5]) and 2.5 ± 0.6 µM against cruzain. Further, the inhibition at 100 µM at cruzain turned out to be 94%.
Consider `COc1ccc(NC(=O)COC(=O)[C@H](CC(C)C)N2CCNCC2)cc1Cl.Cl` [10o, 2-((3-chloro-4-methoxyphenyl)amino)-2-oxoethyl (S)-4-methyl-2-(piperazin-1-yl)pentanoate hydrochloride], for which the CC50 at 72 h in data set [1] was 32 ± 3 µM; in data set [3], 52 ± 7 µM. For the same molecule, the IC50 in data set [2] (setting [5]) worked out at 1.7 ± 0.5 µM. In data set [2] (intracellular amastigotes), the “activity against T. cruzi (in words)” value is given as “remarkably active”. For the same molecule, the inhibition at 100 µM on cruzain amounted to 35%.
Take `CC(C)CC(C(=O)OCC(=O)Nc1ccc(N(C)C(=O)OC(C)(C)C)cc1)N1C(=O)C2CC=CCC2C1=O` (stereo not shown) [3k]: the CC50 at 72 h in data set [1] is more than 100 µM; in data set [3], more than 64 µM. In addition, the IC50 in data set [2] (setting [5]) amounted to 3.9 ± 0.9 µM. Further, the inhibition at 100 µM on cruzain was 7%.
On to `COc1ccc(NC(=O)COC(=O)[C@H](CC(C)C)N2C(=O)C=CC2=O)cc1Cl` [10c, 2-((3-chloro-4-methoxyphenyl)amino)-2-oxoethyl (S)-2-(2,5-dioxo-2,5-dihydro-1H-pyrrol-1-yl)-4-methylpentanoate], for which the CC50 at 72 h in data set [1] stood at 12 ± 1 µM; in data set [3] it was 33 ± 5 µM. Further, the IC50 in data set [2] (setting [5]) stood at 0.9 ± 0.3 µM; at cruzain, 2.3 ± 1 µM. For the same molecule, the inhibition at 100 µM on cruzain was found to be 95%.
Consider `O=C(Cn1ccnc1[N+](=O)[O-])NCc1ccccc1` [BZ, benznidazole, reference compound], for which the CC50 at 72 h in data set [1] is more than 100 µM; in data set [3] it was more than 64 µM. Besides, the IC50 in data set [2] (TULAHUEN, HFF-1, 120 h) was determined as 3 ± 0.6 µM. Besides, the “patients with severe adverse effects” value in data set [4] is “up to 40%”.
On to `COc1ccc(NC(=O)COC(=O)[C@H](CC(C)C)N2CCN(C(=O)OC(C)(C)C)CC2)cc1Cl` [10n, tert-butyl (S)-4-(1-(2-((3-chloro-4-methoxyphenyl)amino)-2-oxoethoxy)-4-methyl-1-oxopentan-2-yl)piperazine-1-carboxylate], for which the CC50 at 72 h in data set [1] worked out at 32 ± 5 µM; in data set [3] it was 27 ± 2 µM. For the same molecule, the IC50 in data set [2] (setting [5]) was 1.6 ± 0.5 µM. Also, in data set [2] (intracellular amastigotes), the “activity against T. cruzi (in words)” value is “remarkably active”. Moreover, the inhibition at 100 µM at cruzain worked out at 8%.
Taken in the same sequence, the figures for `COc1ccc(NC(=O)COC(=O)[C@H](CC(C)C)N2CCCCC2)cc1Cl` [10l, 2-((3-chloro-4-methoxyphenyl)amino)-2-oxoethyl (S)-4-methyl-2-(piperidin-1-yl)pentanoate] were more than 100 µM, more than 64 µM, 11.6 ± 2.4 µM, “moderately active” and 10%.
Taken in the same sequence, the figures for `COc1ccc(NC(=O)COC(=O)[C@H](CC(C)C)N2CCOCC2)cc1Cl` [10m, 2-((3-chloro-4-methoxyphenyl)amino)-2-oxoethyl (S)-4-methyl-2-morpholinopentanoate] were more than 100 µM, more than 64 µM, 1.8 ± 0.4 µM, “remarkably active” and 14%.
`COc1cccc2c1C(=O)c1c(O)c3c(c(O)c1C2=O)C[C@@](O)(C(=O)CO)C[C@@H]3O[C@H]1C[C@H](N)[C@H](O)[C@H](C)O1` [Doxorubicin, doxorubicin, reference compound]: the CC50 at 72 h in data set [1] is 0.21 ± 0.09 µM; in data set [3], 0.4 ± 0.1 µM.
With `COc1ccc(NCCOC(=O)C(CC(C)C)N2C(=O)C3CC=CCC3C2=O)cc1Cl` (stereo not shown) [compound 7, 2-((3-chloro-4-methoxyphenyl)amino)ethyl 2-(1,3-dioxo-1,3,3a,4,7,7a-hexahydro-2H-isoindol-2-yl)-4-methylpentanoate], the CC50 at 72 h in data set [1] was more than 100 µM. Besides, in data set [2] (setting [5]), the IC50 is 1.5 ± 0.4 µM. Besides, the “activity against T. cruzi (in words)” value in data set [2] (intracellular amastigotes) is reported as “active”. At cruzain, the “activity against cruzain (in words)” value was “inactive” and the inhibition at 100 µM is 11%. This molecule gave a CC50 at 72 h in data set [3] of 63 ± 8 µM.
Consider `COc1ccc(NC(=O)COC(=O)[C@H](CC(C)C)N2C(=O)C(Cl)=C(Cl)C2=O)cc1Cl` [10f, 2-((3-chloro-4-methoxyphenyl)amino)-2-oxoethyl (S)-2-(3,4-dichloro-2,5-dioxo-2,5-dihydro-1H-pyrrol-1-yl)-4-methylpentanoate], for which the CC50 at 72 h in data set [1] is 33 ± 9 µM; in data set [3], more than 64 µM. In addition, in data set [2] (setting [5]), the IC50 amounted to 2 ± 0.7 µM. In addition, the “increase in potency against cruzain” value at cruzain (10f compared with 10c/10e) was 6 fold. The inhibition at 100 µM on cruzain amounted to 100%.
Consider `COc1ccc(NC(=O)COC(=O)[C@H](CC(C)C)N2C(=O)CCC2=O)cc1Cl` [10d, 2-((3-chloro-4-methoxyphenyl)amino)-2-oxoethyl (S)-2-(2,5-dioxopyrrolidin-1-yl)-4-methylpentanoate], for which the CC50 at 72 h in data set [1] is more than 100 µM; in data set [3], more than 64 µM. The IC50 in data set [2] (setting [5]) worked out at 18.5 ± 3.1 µM; against cruzain, 12 ± 1 µM. Moreover, at cruzain, the inhibition at 100 µM was 88%. On cruzain (less active than 3a), the “decrease in potency against cruzain relative to 3a” value was determined as 6 fold.
